Experimental findings from patent US20050228188A1, “Astaxanthin medium-chain fatty acid ester, process for producing the same and composition containing the ester” (Suntory Limited, priority 2002, published 2005) are described below.

Structures are written as SMILES.

The nature of the data set: Digestibility of astaxanthins in rats: astaxanthin content in blood plasma and liver by HPLC after oral administration. Conditions: for digestibility (content of astaxanthin in blood plasma and liver) compared with astaxanthin extracted from Haematococcus (Astax9000H): rat, in vivo, po, 100 mg/kg. Here is the method: Using a commercially available astaxanthin extracted from Chlorophyceae of Haematococcus (Itano, product name: Astax9000H) and astaxanthins mono- and di-esterified with a medium-chain fatty acid (Asta-C8-monoester and Asta-C8-diester), the digestibility of these astaxanthins was studied using rats. For the experiment, these astaxanthins were diluted with olive oil so as to obtain a ratio of 100 mg/kg in the conversion of a free astaxanthin, and the diluted astaxanthins were administered to rats (Wister rat). The content of astaxanthin contained in the blood (blood plasma) and the liver of each rat was measured using HPLC. The blood and liver were sampled at 3, 5, 7 and 10 hours after the administration.

As to `CCCCCCCC(=O)O[C@H]1CC(C)(C)C(/C=C/C(C)=C/C=C/C(C)=C/C=C/C=C(C)/C=C/C=C(C)/C=C/C2=C(C)C(=O)[C@@H](OC(=O)CCCCCCC)CC2(C)C)=C(C)C1=O` [Asta-C8-diester, astaxanthin octanoic acid diester], the “digestibility (content of astaxanthin in blood plasma and liver) compared with astaxanthin extracted from Haematococcus (Astax9000H)” value was “much better digestibility”.

On to `CCCCCCCC(=O)OC1CC(C)(C)C(C=CC(C)=CC=CC(C)=CC=CC=C(C)C=CC=C(C)C=CC2=C(C)C(=O)C(O)CC2(C)C)=C(C)C1=O` (stereo not drawn) [Asta-C8-monoester, astaxanthin octanoic acid monoester], for which the “digestibility (content of astaxanthin in blood plasma and liver) compared with astaxanthin extracted from Haematococcus (Astax9000H)” value is reported as “much better digestibility”. The “digestibility, rank among the astaxanthins tested” value (rats, oral, 100 mg/kg in conversion of free astaxanthin, blood plasma and liver at 3, 5, 7 and 10 hours) is “most digested”.
